For 20 compounds, EC50 results are on record in patent US8563714B2, “Bridged spiro [2.4] heptane derivatives as ALX receptor and/or FPRL2 agonists” (Actelion Pharmaceuticals Ltd., priority 2009, dated 2013).

By pEC50 is commonly meant the EC50 on a negative log10 scale, so that one unit is a factor of ten.

One assay deals with T1, human ALX receptor (Homo sapiens, UniProt P25090).
T1 construct: expressed in transfected cells; host or cells: HEK293 (HEK293-hALXR-Gα16)
T1 sequence (P25090 1-351): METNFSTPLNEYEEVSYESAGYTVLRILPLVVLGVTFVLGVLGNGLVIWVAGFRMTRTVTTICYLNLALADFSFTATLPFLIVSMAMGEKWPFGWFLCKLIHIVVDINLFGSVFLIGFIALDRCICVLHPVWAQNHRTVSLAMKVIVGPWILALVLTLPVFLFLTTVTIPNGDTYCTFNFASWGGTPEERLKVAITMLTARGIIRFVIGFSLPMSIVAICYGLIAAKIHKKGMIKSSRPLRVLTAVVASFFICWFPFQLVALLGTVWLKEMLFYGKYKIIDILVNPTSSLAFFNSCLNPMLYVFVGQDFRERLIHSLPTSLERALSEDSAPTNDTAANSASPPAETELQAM
The assay can be described thus: Intracellular calcium measurements (FLIPR), agonistic activity in HEK293-hALXR-Gα16 cells. The assay is classed as cell-based. The settings on record: Fluo-4 calcium FLIPR, normalized to WKYMVm 10 nM. The method in brief:
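HEK293 cells expressing hALXR and Gα16 were loaded with 1 μM Fluo-4 AM and 20 mM HEPES for 60 min at 37°C, then exposed to serially diluted compound. FLIPR fluorescence was read at ex 488/em 540 nm. Baseline-subtracted peak responses were normalized to 10 nM WKYMVm.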
In general terms: Calcium assays in cells follow changes in intracellular calcium, usually with a dye or a luminescent sensor.

Another assay concerns the target T2, human FPRL2 (Homo sapiens, UniProt P25089).
T2 construct: expressed in transfected cells; host or cells: HEK293 (HEK293-hFPRL2-Gα16)
T2 sequence (P25089 1-353): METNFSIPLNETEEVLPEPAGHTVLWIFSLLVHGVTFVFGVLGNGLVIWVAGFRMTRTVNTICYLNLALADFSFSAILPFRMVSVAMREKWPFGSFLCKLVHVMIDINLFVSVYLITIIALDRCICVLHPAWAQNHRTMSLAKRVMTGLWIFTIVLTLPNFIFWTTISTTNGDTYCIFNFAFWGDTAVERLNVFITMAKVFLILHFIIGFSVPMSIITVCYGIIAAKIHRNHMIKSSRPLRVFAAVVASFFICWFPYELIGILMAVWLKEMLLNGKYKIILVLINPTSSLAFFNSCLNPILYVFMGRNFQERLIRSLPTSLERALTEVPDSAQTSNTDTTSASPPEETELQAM
The assay can be described thus: Intracellular calcium measurements (FLIPR), agonistic activity in HEK293-hFPRL2-Gα16 cells. Type of assay: cell-based. As to conditions: Fluo-4 calcium FLIPR, normalized to GLY14-Humanin 100 nM. An outline of the steps: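 Peak values after baseline subtraction are expressed relative to 100 nM Gly14-Humanin; compounds diluted in assay buffer from 10 mM DMSO stocks.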

pEC50: −log10 of the molar value.

Consider `O=C(NCCCCN1CCCC1)[C@H]1[C@H](C(=O)Nc2cc(F)c(Br)cc2F)[C@@H]2C=C[C@H]1C21CC1` [Example 314, (5R)—N^5-(4-Bromo-2,5-difluorophenyl)-(6R)—N^6-(4-pyrrolidino-butyl)-(4S,7R)-[4,7-ethenylene-spiro[2.4]heptane]-5,6-dicarboxamide], for which the pEC50 at human ALX receptor was 6.99; on human FPRL2, 6.69.

Turning to `O=C(NCCCn1cncn1)[C@H]1[C@H](C(=O)Nc2ccc(Br)cc2)[C@@H]2C=C[C@H]1C21CC1` (racemic) [Example 55, (5R*)—N^5-(4-Bromophenyl)-(6R*)—N^6-(3-1H-[1,2,4]-triazol-1-yl-propyl)-(4S*,7R*)-[4,7-ethenylene-spiro[2.4]heptane]-5,6-dicarboxamide], the negative-log EC50 (pEC50) at human ALX receptor was 7.74; on human FPRL2, 5.18.

In the case of `CC1(C(=O)NCC2C(C(=O)Nc3ccc(Br)cc3)C3C=CC2C32CC2)CC1(Cl)Cl` (mixture of isomers) [Example 165, (5R*)—N^5-(4-Bromo-phenyl)-(6R*)-6-{[(2,2-dichloro-1-methyl-cyclopropylcarbonyl)-amino]-methyl}-(4S*,7R*)-[4,7-ethenylene-spiro[2.4]heptane]-5-carboxamide], the negative-log EC50 (pEC50) at human ALX receptor is 7.06; at human FPRL2, 5.59.

For `O=C(NCC1CCNCC1)[C@H]1[C@H](C(=O)NCc2ccc(Br)cc2)[C@@H]2C=C[C@H]1C21CC1` (racemic) [Example 311, (5R*)—N^5-(4-Bromophenyl-methyl)-(6R*)—N^6-(piperidin-4-yl-methyl)-(4S*,7R*)-[4,7-ethenylene-spiro[2.4]heptane]-5,6-dicarboxamide], the pEC50 on human ALX receptor was 7.27; at human FPRL2 it was 5.93.

In the case of `O=C(NCCCCN1CCCC1)[C@H]1[C@H](C(=O)Nc2nc(-c3ccccc3)ns2)[C@@H]2C=C[C@H]1C21CC1` (racemic) [Example 153, (5R*)—N^5-(3-Phenyl-[1,2,4]thiadiazol-5-yl)-(6R*)—N^6-(4-pyrrolidin-1-yl-butyl)-(4S*,7R*)-[4,7-ethenylene-spiro[2.4]heptane]-5,6-dicarboxamide], the pEC50 at human ALX receptor was 5.00; at human FPRL2 it was 7.04.

Turning to `O=C(NCCCCN1CCCC1)[C@H]1[C@H](C(=O)NCc2cccc(Cl)c2F)[C@@H]2C=C[C@H]1C21CC1` (racemic) [Example 349, (5R*)—N^5-(3-Chloro-2-fluorophenyl-methyl)-(6R*)—N^6-(4-pyrrolidino-butyl)-(4S*,7R*)-[4,7-ethenylene-spiro[2.4]heptane]-5,6-dicarboxamide], the values for the pEC50 at human ALX receptor and at human FPRL2 were 5.33 and 6.70, respectively.

Take `O=C(NCCCCN1CCCC1)[C@H]1[C@H](C(=O)Nc2ccc(Br)cc2F)[C@@H]2C=C[C@H]1C21CC1` [Example 295, (5R)—N^5-(4-Bromo-2-fluorophenyl)-(6R)—N^6-(4-pyrrolidino-butyl)-(4S,7R)-[4,7-ethenylene-spiro[2.4]heptane]-5,6-dicarboxamide]: the pEC50 on human ALX receptor is 8.89; on human FPRL2, 6.94.

As for `O=C(NCCCn1cccn1)[C@H]1[C@H](C(=O)Nc2ccc(Br)cc2)[C@@H]2C=C[C@H]1C21CC1` (racemic) [Example 37, (5R*)—N^5-(4-Bromophenyl)-(6R*)—N^6-(3-1H-pyrazol-1-yl-propyl)-(4S*,7R*)-[4,7-ethenylene-spiro[2.4]heptane]-5,6-dicarboxamide], the pEC50 at human ALX receptor is 8.15; at human FPRL2, 5.77.

As for `O=C(NC1CCNCC1)[C@H]1[C@H](C(=O)NCc2ccc(Br)cc2)[C@@H]2C=C[C@H]1C21CC1` (racemic) [Example 306, (5R*)—N^5-(4-Bromophenyl-methyl)-(6R*)—N^6-(piperidin-4-yl)-(4S*,7R*)-[4,7-ethenylene-spiro[2.4]heptane]-5,6-dicarboxamide], the pEC50 on human ALX receptor is 7.64; at human FPRL2 it was 5.56.

For `CCCCCNC(=O)[C@H]1[C@H](C(=O)NCCCCN2CCCC2)[C@H]2C=C[C@@H]1C21CC1` (racemic) [Example 122, (5R*)—N^5-Pentyl-(6R*)—N^6-(4-pyrrolidin-1-yl-butyl)-(4S*,7R*)-[4,7-ethenylene-spiro[2.4]heptane]-5,6-dicarboxamide], the pEC50 at human ALX receptor was 7.10; on human FPRL2, 6.30.

Turning to `CN(C)CCNC(=O)[C@H]1[C@H](C(=O)NCCc2ccc(Cl)cc2)[C@@H]2C=C[C@H]1C21CC1` [Example 388, (5R)—N^5-(2-(4-Chlorophenyl)ethyl)-(6R)—N^6-(2-dimethylamino-ethyl)-(4S,7R)-[4,7-ethenylene-spiro[2.4]heptane]-5,6-dicarboxamide], the negative logarithm of the EC50 (pEC50) was under 4.60 on human ALX receptor and 6.21 at human FPRL2.

With `CN1CCCN(CCCCNC(=O)[C@H]2[C@H](C(=O)Nc3ccc(Br)cc3)[C@@H]3C=C[C@H]2C32CC2)CC1` [Example 212, (5R)—N^5-(4-Bromophenyl)-(6R)—N^6-(4-(4-methyl-1,4-diazepan-1-yl)butyl)-(4S,7R)-[4,7-ethenylene-spiro[2.4]heptane]-5,6-dicarboxamide], the pEC50 was 9.05 at human ALX receptor and 7.92 at human FPRL2.

Take `CCN(CC)CCCCNC(=O)C1C(C(=O)NCc2ccc(Br)cc2)C2C=CC1C21CC1` (stereo not drawn) [Example 272, (5R*)—N^5-(4-Bromophenyl-methyl)-(6R*)—N^6-(4-diethylamino-butyl)-(4S*,7R*)-[4,7-ethenylene-spiro[2.4]heptane]-5,6-dicarboxamide]: the negative-log EC50 (pEC50) at human ALX receptor is 6.92; at human FPRL2, 6.52.

Take `NC(=O)CCNC(=O)[C@H]1[C@H](C(=O)NCc2ccc(Br)cc2F)[C@@H]2CC[C@H]1C21CC1` [Example 292, (5R)—N^5-(4-Bromo-2-fluorophenyl-methyl)-(6R)—N^6-(3-amino-3-oxopropyl)-(4S,7R)-[4,7-ethylene-spiro[2.4]heptane]-5,6-dicarboxamide]: the negative-log EC50 (pEC50) on human ALX receptor was 7.15; at human FPRL2 it was 6.18.

In the case of `CC(C)(C)OC(=O)N1CCC(CNC(=O)[C@H]2[C@H](C(=O)Nc3ccc(Br)cc3)[C@@H]3C=C[C@H]2C32CC2)CC1` (racemic) [Example 92, (5R*)—N^5-(4-Bromophenyl)-(6R*)—N^6—(N-tert-butoxycarbonyl-piperidin-4-yl-methyl)-(4S*,7R*)-[4,7-ethenylene-spiro[2.4]heptane]-5,6-dicarboxamide], the pEC50 on human ALX receptor was 6.69; at human FPRL2, 5.57.

With `NCCCCCNC(=O)C1C(C(=O)Nc2ccc(Br)cc2)C2C=CC1C21CC1` (stereo not drawn) [Example 1, (5R*)—N^5-(4-Bromophenyl)-(6R*)—N^6-(5-amino-pentyl)-(4S*,7R*)-[4,7-ethenylene-spiro[2.4]heptane]-5,6-dicarboxamide], the pEC50 on human ALX receptor was 9.80; on human FPRL2 it was 6.24.

On to `CC(C)CNC(=O)[C@H]1[C@H](C(=O)NCc2ccc(Br)cc2)[C@@H]2C=C[C@H]1C21CC1` (racemic) [Example 246, (5R*)—N^5-(4-Bromo-phenyl-methyl)-(6R*)—N^6-(isobutyl)-(4S*,7R*)-[4,7-ethenylene-spiro[2.4]heptane]-5,6-dicarboxamide], for which the figures for the pEC50 on human ALX receptor and at human FPRL2 were 6.72 and 5.27, respectively.

For the compound `CC(=O)c1csc(CNC(=O)[C@H]2[C@H](C(=O)NCCN3CCNC3=O)[C@H]3C=C[C@@H]2C32CC2)n1` (racemic) [Example 269, (5R*)—N^5-(4-Acetyl-thiazol-2-yl-methyl)-(6R*)—N^6-((2-imidazolidin-2-on)-1-yl-ethyl)-(4S*,7R*)-[4,7-ethenylene-spiro[2.4]heptane]-5,6-dicarboxamide], the pEC50 on human ALX receptor was 7.09; on human FPRL2, 5.45.

Regarding `CN(C[C@H]1[C@H](C(=O)Nc2ccc(Br)cc2)[C@@H]2C=C[C@H]1C21CC1)C(=O)Cc1ccccc1Cl` (racemic) [Example 182, (5R*)—N^5-(4-Bromo-phenyl)-(6R*)-6-{[N-(2-(2-chloro-phenyl)-acetyl)-N-methyl-amino]-methyl}-(4S*,7R*)-[4,7-ethenylene-spiro[2.4]heptane]-5-carboxamide], the negative-log EC50 (pEC50) at human ALX receptor was 6.53; on human FPRL2, 5.69.

For the compound `CC(C)(CNC(=O)OC(C)(C)C)CNC(=O)[C@H]1[C@H](C(=O)Nc2ccc(Br)cc2)[C@@H]2C=C[C@H]1C21CC1` (racemic) [Example 71, (5R*)—N^5-(4-Bromophenyl)-(6R*)—N^6-(2,2-dimethyl-3-N-tert-butoxycarbonyl-amino-propyl)-(4S*,7R*)-[4,7-ethenylene-spiro[2.4]heptane]-5,6-dicarboxamide], the pEC50 on human ALX receptor is 7.20; at human FPRL2, 5.26.
